Paper PMC12764842 (Acta Pharmacologica Sinica, 2025)

Test system: LCMV
Parameters: species or system BALB/c mice
Conditions: mouse, in vivo

O=C1O[C@H]2[C@@H]3OC(=O)c4cc(O)c(O)c(O)c4-c4c(O)c(O)c5oc(=O)c6c(c(O)c(O)c7oc(=O)c4c5c76)-c4c(cc(O)c(O)c4O)C(=O)OC[C@H]3OC(O)[C@@H]2OC(=O)c2cc(O)c(O)c(O)c2-c2c1cc(O)c(O)c2O (mixture of isomers) [Punicalagin]
Viral copies in the liver: no effect

O=C(O)C[C@@H]1C(=O)O[C@H]2[C@H](OC(=O)c3cc(O)c(O)c(O)c3)[C@@H](OC(=O)c3cc(O)c(O)c4c3[C@H]1[C@H](O)C(=O)O4)[C@H](OC(=O)c1cc(O)c(O)c(O)c1)O[C@@H]2COC(=O)c1cc(O)c(O)c(O)c1 [Chebullinic acid, chebulinic acid]
Viral copies in the liver: no effect

O=C(/C=C/c1ccc(O)c(O)c1/C=C/c1ccc(O)c(O)c1)O[C@H](Cc1ccc(O)c(O)c1)C(=O)O [Salvianolic acid A, salvianolic acid A]
Viral copies in the liver: significantly reduced

NC(=O)c1nc(F)c[nH]c1=O [T-705, favipiravir, reference compound]
Body weight decrease of LCMV-challenged mice: decrease was halted
Viral copies in the liver: significantly reduced
